These results are taken from PubChem BioAssay AID1259411 (Chemical Carcinogenesis Research Information System (CCRIS), 2018).

Active and inactive are the calls of the source. The rule behind the calls is not given here.

In the data set the test system is rodent carcinogenicity bioassays, tumor incidence. Briefly: CCRIS carcinogenicity studies. Put shortly: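 NCI-built, expert-reviewed records of carcinogenicity and related test outcomes (mutagenicity, tumor promotion/inhibition) compiled from published and report sources, historical span 1985-2011, not updated.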

On to `COC(=O)COc1ccc(Cl)cc1`, for which the carcinogen call (Species: NEWT, Route: IMMERSION, Dose: 0, 100, 200, 400 PPM 4 D/WK FOR 12 MO (STUDY DURATION: 24 MO), Dose: 0, 100, 200, 400 PPM 4 D/WK FOR 12 MO (STUDY DURATION: 24 MO)) was “inactive; negative”.
Regarding `CO[C@H]1C[C@]2(C)[C@@H](O)CC[C@H]2[C@@H]2CCc3cc(O)ccc3[C@H]21`, under “Species: HAMSTER, Strain/Sex: SYRIAN/MALE, Route: SUBCUTANEOUS IMPLANT, Dose: 0, 20 MG IN PELLETS IMPLANTED EVERY 2.5 MO FOR 9 MO (STUDY DURATION: 9 MO), Tumor Site: Type of Lesion: KIDNEY: TUMOR”, the carcinogen call is “active; positive”.
Regarding `CC(C)=CCC/C(C)=C/C=C/C(C)=C/C=C/C(C)=C/C=C/C=C(C)/C=C/C=C(C)/C=C/C=C(\C)CCC=C(C)C`, under “Species: MOUSE, Strain/Sex: C57BL/6J/MALE, Route: ORAL, Dose: 0, 50, 200 PPM IN DRINKING WATER FOR 80 WK (STUDY DURATION: 80 WK), Dose: 0, 50, 200 PPM IN DRINKING WATER FOR 80 WK (STUDY DURATION: 80 WK)”, the carcinogen call was “inactive; negative”.
With `O=NN(CCO)CCO`, the carcinogen call reads like this: (Species: HAMSTER, Route: SUBCUTANEOUS, Tumor Site: Type of Lesion: LIVER, INJECTION SITE, NASAL CAVITY, TRACHEA, Tumor Site: Type of Lesion: LIVER, INJECTION SITE, NASAL CAVITY, TRACHEA) “active; positive”; (Species: HAMSTER, Strain/Sex: SYRIAN/FEMALE, Route: SUBCUTANEOUS, Dose: 0, 250, 500, 1000 MG/KG IN SALINE 1/WK FOR DURATION OF STUDY (STUDY DURATION: 41-59 WK), Dose: 0, 250, 500, 1000 MG/KG IN SALINE 1/WK FOR DURATION OF STUDY (STUDY DURATION: 41-59 WK), Tumor Site: Type of Lesion: NASAL CAVITY: ADENOCARCINOMA, TRACHEA: PAPILLARY POLYP, LARYNX: PAPILLARY POLYP, Tumor Site: Type of Lesion: NASAL CAVITY: ADENOCARCINOMA, TRACHEA: PAPILLARY POLYP, LARYNX: PAPILLARY POLYP) “active; positive”; (Species: HAMSTER, Strain/Sex: SYRIAN/MALE, Route: SUBCUTANEOUS, Dose: 0, 250, 500, 1000 MG/KG IN SALINE 1/WK FOR DURATION OF STUDY (STUDY DURATION: 45-54 WK), Dose: 0, 250, 500, 1000 MG/KG IN SALINE 1/WK FOR DURATION OF STUDY (STUDY DURATION: 45-54 WK), Tumor Site: Type of Lesion: NASAL CAVITY: ADENOCARCINOMA, TRACHEA: PAPILLARY POLYP, LARYNX: PAPILLARY POLYP, Tumor Site: Type of Lesion: NASAL CAVITY: ADENOCARCINOMA, TRACHEA: PAPILLARY POLYP, LARYNX: PAPILLARY POLYP) “active; positive”; (Species: MOUSE, Strain/Sex: STRAIN-A/FEMALE, Route: ORAL, Dose: 0, 0.2 UMOL/ML IN DRINKING WATER FOR 10 WK (TOTAL DOSE: 0, 55 UMOL) FOLLOWED BY TAP WATER FOR 20 WK (STUDY DURATION: 30, Tumor Site: Type of Lesion: LUNG: TUMORS) “active; positive”; (Species: RAT, Route: ORAL, Tumor Site: Type of Lesion: KIDNEY, LIVER) “active; positive”; (Species: RAT, Strain/Sex: F344/FEMALE, Route: ORAL, Dose: 0, 150 MG/L IN DRINKING WATER 5 D/WK FOR 50 WK (TOTAL DOSE: 0; 5.6 MMOL) (STUDY DURATION: 124 WK), Dose: 0, 150 MG/L IN DRINKING WATER 5 D/WK FOR 50 WK (TOTAL DOSE: 0; 5.6 MMOL) (STUDY DURATION: 124 WK), Tumor Site: Type of Lesion: LIVER: HEPATOCELLULAR TUMOR) “active; positive”.
Regarding `Cc1cc2ccccc2c2ccc3c(c12)[C@@H]1O[C@@H]1[C@H](O)[C@H]3O`, the carcinogen call is, setting by setting: (Species: MOUSE, Strain/Sex: ICR/FEMALE, Route: INTRAPERITONEAL, Dose: 0, 8 NMOL IN 5 µL DMSO ON D 1, 16 NMOL IN 10 µL ON D 8 AND 32 NMOL IN 20 µL ON D 15 OF LIFE (STUDY DURATION: 35 WK), Tumor Site: Type of Lesion: LUNG: TUMOR) “active; positive”; (Species: MOUSE, Strain/Sex: ICR/FEMALE, Route: INTRAPERITONEAL, Dose: 0, 8 NMOL IN 5 µL DMSO TO PUPS ON D 1/OF LIFE THEN 16 NMOL IN 10 µL ON D 8 AND 3 NMOL IN 20 µL ON D 15 (STUDY DURATION:, Tumor Site: Type of Lesion: LUNG: TUMOR) “active; positive”; (Species: MOUSE, Strain/Sex: ICR/FEMALE, Route: INTRAPERITONEAL, Dose: 8 NMOL/5 µL DMSO ON DAY 1, 16 NMOL/10 µL ON DAY 8, AND 32 NMOL/20 µL ON DAY 15 OF AGE (STUDY DURATION: 35 WK), Tumor Site: Type of Lesion: LUNG: TUMORS) “active; positive”; (Species: MOUSE, Strain/Sex: ICR/MALE, Route: INTRAPERITONEAL, Dose: 0, 8 NMOL IN 5 µL DMSO ON D 1, 16 NMOL IN 10 µL ON D 8 AND 32 NMOL IN 20 µL ON D 15 OF LIFE (STUDY DURATION: 35 WK), Tumor Site: Type of Lesion: LUNG: TUMOR, LIVER: TUMOR) “active; positive”; (Species: MOUSE, Strain/Sex: ICR/MALE, Route: INTRAPERITONEAL, Dose: 0, 8 NMOL IN 5 µL DMSO TO PUPS ON D 1/OF LIFE THEN 16 NMOL IN 10 µL ON D 8 AND 3 NMOL IN 20 µL ON D 15 (STUDY DURATION:, Tumor Site: Type of Lesion: LUNG: TUMOR, LIVER: TUMOR) “active; positive”; (Species: MOUSE, Strain/Sex: ICR/MALE, Route: INTRAPERITONEAL, Dose: 8 NMOL/5 µL DMSO ON DAY 1, 16 NMOL/10 µL ON DAY 8, AND 32 NMOL/20 µL ON DAY 15 OF AGE (STUDY DURATION: 35 WK), Tumor Site: Type of Lesion: LUNG: TUMORS, LIVER: TUMORS) “active; positive”.
As to `C/C=C/c1ccc(OC)cc1`, the carcinogen call (Species: MOUSE, Strain/Sex: B6C3F1/MALE, Route: INTRAPERITONEAL, Dose: 0, 0.5 UMOL/G BW ONCE (STUDY DURATION: 10-11 MONTHS)) is “inactive; negative”; the carcinogen call (Species: MOUSE, Strain/Sex: CD-1/FEMALE, Route: DERMAL, Dose: 0, 5 UMOL 1X/WK FOR 3 WK BEGINNING 24 HR POST FIRST TPA DOSE (2.5 UG IN 0.1 ML ACETONE), FOLLOWED BY 2.5 UG TPA IN 0.1 M, Tumor Site: Type of Lesion: SKIN: PAPILLOMA) is “inactive; negative”; the carcinogen call (Species: RAT, Strain/Sex: SPRAGUE-DAWLEY/FEMALE, Route: ORAL, Dose: 0, 0.25, 0.5, 1% IN DIET FOR 117 WK (STUDY DURATION: 121 WK), Dose: 0, 0.25, 0.5, 1% IN DIET FOR 117 WK (STUDY DURATION: 121 WK), Tumor Site: Type of Lesion: LIVER: HEPTOCELLULAR CARCINOMA) is “active; positive”; the carcinogen call (Species: RAT, Strain/Sex: SPRAGUE-DAWLEY/MALE, Route: ORAL, Dose: 0, 0.25, 0.5, 1.0% IN DIET FOR 117 WK (STUDY DURATION: 121 WK), Dose: 0, 0.25, 0.5, 1.0% IN DIET FOR 117 WK (STUDY DURATION: 121 WK)) was “inactive; negative”.
For the molecule `CN(CCC(=O)O)N=O`, the carcinogen call (Species: MOUSE, Strain/Sex: STRAIN-A/FEMALE, Route: INTRAPERITONEAL, Dose: 0, 200 UMOL MOUSE (TOTAL DOSE) ADMINISTERED IN 0.1 ML SALINE 3/WK (TOTAL 20 INJECTIONS) (STUDY DURATION: 37 WK), Tumor Site: Type of Lesion: LUNG: ADENOCARCINOMA, ADENOMA) was “active; positive”.
For the molecule `CCCCCCCCCCCCCC(=O)ON(C(C)=O)c1ccc2c(c1)Cc1ccccc1-2`, the carcinogen call (Species: RAT, Strain/Sex: F344/MALE, Route: SUBCUTANEOUS, Dose: 10.6 UMOL IN 0.2 ML DMSO-TRIOCTANOIN 1/WK FOR 6 WK, Tumor Site: Type of Lesion: INJECTION SITE: FIBROSARCOMA OR FIBROMYOSARCOMA OR FIBROLIPOSARCOMA) was “active; positive”.
As to `O=[N+]([O-])c1ccc2c(c1)Cc1ccccc1-2`, where the note is “Species: RAT, Strain/Sex: WISTAR/MALE, Route: ORAL, Dose: 0, 0.24, 0.95, 2.37 MMOL/KG DIET FOR 11 MO FOLLOWED BY BASAL DIET FOR 13 MO (STUDY DURATION: 24 MO), Dose: 0, 0.24, 0.95, 2.37 MMOL/KG DIET FOR 11 MO FOLLOWED BY BASAL DIET FOR 13 MO (STUDY DURATION: 24 MO), Tumor Site: Type of Lesion: LIVER: HEPATOCELLULAR CARCINOMA, FORESTOMACH: SQUAMOUS CELL CARCINOMA, KIDNEY: CARCINOMA, Tumor Site: Type of Lesion: LIVER: HEPATOCELLULAR CARCINOMA, FORESTOMACH: SQUAMOUS CELL CARCINOMA, KIDNEY: CARCINOMA”, the carcinogen call is “active; positive”.
`CC1CC2OC2CC1COC(=O)C1CC2OC2CC1C` (stereo not drawn): for the setting “Species: MOUSE, Route: DERMAL, Tumor Site: Type of Lesion: INTEGUMENTARY SYSTEM (SKIN)”, the carcinogen call was “active; positive”.
